Read-outs that look alike come from different tables or passages of the source.
Key:
Format in all cases: cell-based, human
SK-BR-3 = test: SRB colorimetric assay of cell growth and viability, SK-BR-3; details: 48 hours exposure
LNCaP = test: SRB colorimetric assay of cell growth and viability, LNCaP; details: 48 hours exposure; for GI50: read-out: GI50 LN-caP; for CC50: read-out: LC50 LN-caP
A-549 = test: SRB colorimetric assay of cell growth and viability, A-549; details: 48 hours exposure; for GI50: read-out: GI50 A-549; for CC50: read-out: LC50 A-549
LoVo = test: SRB colorimetric assay of cell growth and viability, LoVo; details: 48 hours exposure; for CC50: read-out: LC50 LOVO
HeLa = test: SRB colorimetric assay of cell growth and viability, HeLa; details: 48 hours exposure; for CC50: read-out: LC50 HELA
K-562 = test: SRB colorimetric assay of cell growth and viability, K-562; details: 48 hours exposure; for CC50: read-out: LC50 K-562
LoVo-Dox = test: SRB colorimetric assay of cell growth and viability, LoVo-Dox; details: 48 hours exposure; for CC50: read-out: LC50 LOVO-DOX
Summary of the method: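 After 48 hours continuous exposure to samples spanning 10 to 10^−8 μg/mL, biomass was quantified by sulforhodamine B staining of TCA-fixed cells (OD 490 nm). Cells, 5×10^3 per well in RPMI 1640 10% FBS, had attached 18 hours first; GI, TGI and LC derived from triplicate wells.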

IGROV-ET = test: SRB colorimetric assay of cell growth and viability, IGROV-ET; details: 48 hours exposure; for CC50: read-out: LC50 IGROV-ET
HT-29 = test: SRB colorimetric assay of cell growth and viability, HT-29; details: 48 hours exposure; for GI50: read-out: GI50 HT-29; for CC50: read-out: LC50 HT-29
SK-MEL-28 = test: SRB colorimetric assay of cell growth and viability, SK-MEL-28; details: 48 hours exposure; for CC50: read-out: LC50 MEL-28
IGROV-1 = test: SRB colorimetric assay of cell growth and viability, IGROV-1; details: 48 hours exposure
HeLa-APL = test: SRB colorimetric assay of cell growth and viability, HeLa-APL; details: 48 hours exposure; for CC50: read-out: LC50 HELA-APL
PANC-1 = test: SRB colorimetric assay of cell growth and viability, PANC-1; details: 48 hours exposure; for CC50: read-out: LC50 PANC-1
DU-145 = test: SRB colorimetric assay of cell growth and viability, DU-145; details: 48 hours exposure

With C/C=C1\NC(=O)[C@H](Cc2ccccc2)NC(=O)[C@@H](C(C)C)NC(=O)[C@@H]([C@@H](C)CC)NC(=O)[C@H](NC(=O)[C@H](NC(=O)[C@H](CCCN)NC(=O)[C@H]2CCCN2C(=O)[C@H](NC(=O)[C@@H](NC(=O)[C@@H](NC(=O)[C@H](NC(=O)CCCCCCCCCC)C(C)C)[C@@H](C)O)C(C)C)C(C)C)[C@@H](C)CC)[C@@H](C)OC(=O)[C@H](C(C)C)NC1=O [Compound 15, [Und^14]-KF] the GI50 (SK-BR-3) was 0.0267 µM, the LC50 (SK-BR-3) was 0.468 µM and the “TGI SK-BR-3” value (SK-BR-3) was 7.43E−08 Molar. The “TGI LN-caP” value (LNCaP) was 1.44E−06 Molar, the GI50 (LNCaP) was 0.529 µM and the CC50 (LNCaP) was 3.48 µM. The “TGI A-549” value (A-549) was 3.39E−07 Molar, the GI50 (A-549) was 0.143 µM and the CC50 (A-549) was 1.69 µM. The GI50 (LoVo) was 0.117 µM, the “TGI LOVO” value (LoVo) was 2.67E−07 Molar and the CC50 (LoVo) was 0.604 µM. The GI50 (HeLa) was 0.12 µM, the “TGI HELA” value (HeLa) was 2.65E−07 Molar and the CC50 (HeLa) was 0.588 µM. For the same molecule, the GI50 (K-562) was 1.15 µM, the “TGI K-562” value (K-562) was 2.18E−06 Molar and the CC50 (K-562) was 4.1 µM. The GI50 (LoVo-Dox) was 0.0408 µM, the “TGI LOVO-DOX” value (LoVo-Dox) was 1.65E−07 Molar and the CC50 (LoVo-Dox) was 0.478 µM. The GI50 (IGROV-ET) was 0.235 µM, the “TGI IGROV-ET” value (IGROV-ET) was 8.41E−07 Molar and the CC50 (IGROV-ET) was 3.34 µM. For the same molecule, the “TGI HT-29” value (HT-29) was 2.70E−07 Molar, the GI50 (HT-29) was 0.127 µM and the CC50 (HT-29) was 0.574 µM. For the same molecule, the GI50 (SK-MEL-28) was 0.169 µM, the “TGI MEL-28” value (SK-MEL-28) was 4.45E−07 Molar and the CC50 (SK-MEL-28) was 2.04 µM. The GI50 (IGROV-1) was 0.158 µM, the LC50 (concentration causing 50% net cell killing) (IGROV-1) was 1.54 µM and the “TGI IGROV” value (IGROV-1) was 3.72E−07 Molar. The GI50 (HeLa-APL) was 0.229 µM, the “TGI HELA-APL” value (HeLa-APL) was 8.47E−07 Molar and the CC50 (HeLa-APL) was 3.55 µM. The GI50 (PANC-1) was 1.23 µM, the “TGI PANC-1” value (PANC-1) was 2.28E−06 Molar and the CC50 (PANC-1) was 4.2 µM. The GI50 (DU-145) was 0.162 µM, the LC50 (concentration causing 50% net cell kill) (DU-145) was 1.04 µM and the “TGI DU-145” value (DU-145) was 3.53E−07 Molar.

In the case of [D,L-Ser^2]-KF [Compound 64], the GI50 (SK-BR-3) is reported as ≥ 6.75 µM, the LC50 (SK-BR-3) is reported as ≥ 6.75 µM and the “TGI SK-BR-3” value (SK-BR-3) is reported as 6.75E−06 Molar. For the same molecule, the “TGI LN-caP” value (LNCaP) was 3.99E−06 Molar, the GI50 (LNCaP) was 1.8 µM and the CC50 (LNCaP) was ≥ 6.75 µM. The “TGI A-549” value (A-549; SRB) was 6.75E−06 Molar, the GI50 (A-549; SRB) was ≥ 6.75 µM and the CC50 (A-549; SRB) was ≥ 6.75 µM. The GI50 (LoVo; SRB) was ≥ 6.75 µM, the “TGI LOVO” value (LoVo; SRB) was 6.75E−06 Molar and the CC50 (LoVo; SRB) was ≥ 6.75 µM. The GI50 (HeLa; SRB) was ≥ 6.75 µM, the “TGI HELA” value (HeLa; SRB) was 6.75E−06 Molar and the CC50 (HeLa; SRB) was ≥ 6.75 µM. For the same molecule, the GI50 (K-562; SRB) was ≥ 6.75 µM, the “TGI K-562” value (K-562; SRB) was 6.75E−06 Molar and the CC50 (K-562; SRB) was ≥ 6.75 µM. For the same molecule, the GI50 (LoVo-Dox; SRB) was ≥ 6.75 µM, the “TGI LOVO-DOX” value (LoVo-Dox; SRB) was 6.75E−06 Molar and the CC50 (LoVo-Dox; SRB) was ≥ 6.75 µM. For the same molecule, the GI50 (IGROV-ET) was ≥ 6.75 µM, the “TGI IGROV-ET” value (IGROV-ET) was 6.75E−06 Molar and the CC50 (IGROV-ET) was ≥ 6.75 µM. For the same molecule, the “TGI HT-29” value (HT-29; SRB) was 6.75E−06 Molar, the GI50 (HT-29; SRB) was ≥ 6.75 µM and the CC50 (HT-29; SRB) was ≥ 6.75 µM. The GI50 (SK-MEL-28) was ≥ 6.75 µM, the “TGI MEL-28” value (SK-MEL-28) was 6.75E−06 Molar and the CC50 (SK-MEL-28) was ≥ 6.75 µM. The GI50 (IGROV-1) was ≥ 6.75 µM, the LC50 (concentration causing 50% net cell killing) (IGROV-1) was ≥ 6.75 µM and the “TGI IGROV” value (IGROV-1) was 6.75E−06 Molar. For the same molecule, the GI50 (HeLa-APL; SRB) was ≥ 6.75 µM, the “TGI HELA-APL” value (HeLa-APL; SRB) was 6.75E−06 Molar and the CC50 (HeLa-APL; SRB) was ≥ 6.75 µM. The GI50 (PANC-1; SRB) was ≥ 6.75 µM, the “TGI PANC-1” value (PANC-1; SRB) was 6.75E−06 Molar and the CC50 (PANC-1; SRB) was ≥ 6.75 µM. The GI50 (DU-145) was ≥ 6.75 µM, the LC50 (concentration causing 50% net cell kill) (DU-145) was ≥ 6.75 µM and the “TGI DU-145” value (DU-145) was 6.75E−06 Molar.

For C/C=C1\NC(=O)[C@H](Cc2ccccc2)NC(=O)[C@@H](C(C)C)NC(=O)[C@@H]([C@@H](C)CC)NC(=O)[C@H](NC(=O)[C@H](NC(=O)[C@H](CCCN)NC(=O)[C@H]2CCCN2C(=O)[C@H](NC(=O)[C@@H](NC(=O)[C@@H](NC(=O)[C@H](NC(=O)CC[C@@H](C)[C@H]2CC[C@H]3[C@@H]4CC[C@@H]5C[C@H](OC(=O)C(F)(F)F)CC[C@]5(C)[C@H]4CC[C@]23C)C(C)C)[C@@H](C)OC(=O)C(F)(F)F)C(C)C)C(C)C)[C@@H](C)CC)[C@@H](C)OC(=O)[C@H](C(C)C)NC1=O [Compound 97, [Thr(OTfa)^12, Lit(OTfa)^14]-Kahalalide F], the GI50 (SK-BR-3; SRB) was 0.0455 µM, the LC50 (SK-BR-3; SRB) was 0.324 µM and the “TGI SK-BR-3” value (SK-BR-3; SRB) was 1.17E−07 Molar. The “TGI LN-caP” value (LNCaP; SRB) was 1.81E−06 Molar, the GI50 (LNCaP; SRB) was 0.866 µM and the CC50 (LNCaP; SRB) was 3.77 µM. For the same molecule, the “TGI A-549” value (A-549; SRB) was 1.96E−06 Molar, the GI50 (A-549; SRB) was 1.05 µM and the CC50 (A-549; SRB) was 3.64 µM. For the same molecule, the GI50 (LoVo; SRB) was 0.128 µM, the “TGI LOVO” value (LoVo; SRB) was 3.01E−07 Molar and the CC50 (LoVo; SRB) was 1.09 µM. The GI50 (HeLa; SRB) was 0.809 µM, the “TGI HELA” value (HeLa; SRB) was 1.78E−06 Molar and the CC50 (HeLa; SRB) was 3.89 µM. For the same molecule, the GI50 (K-562; SRB) was 1.28 µM, the “TGI K-562” value (K-562; SRB) was 2.34E−06 Molar and the CC50 (K-562; SRB) was 4.27 µM. For the same molecule, the GI50 (LoVo-Dox; SRB) was 0.186 µM, the “TGI LOVO-DOX” value (LoVo-Dox; SRB) was 3.96E−07 Molar and the CC50 (LoVo-Dox; SRB) was 4.12 µM. For the same molecule, the GI50 (IGROV-ET; SRB) was 0.232 µM, the “TGI IGROV-ET” value (IGROV-ET; SRB) was 4.57E−07 Molar and the CC50 (IGROV-ET; SRB) was 2.38 µM. The “TGI HT-29” value (HT-29; SRB) was 3.36E−07 Molar, the GI50 (HT-29; SRB) was 0.176 µM and the CC50 (HT-29; SRB) was 1.19 µM. The GI50 (SK-MEL-28; SRB) was 0.128 µM, the “TGI MEL-28” value (SK-MEL-28; SRB) was 2.21E−07 Molar and the CC50 (SK-MEL-28; SRB) was 0.384 µM. For the same molecule, the GI50 (IGROV-1; SRB) was 0.244 µM, the LC50 (concentration causing 50% net cell killing) (IGROV-1; SRB) was 2.2 µM and the “TGI IGROV” value (IGROV-1; SRB) was 4.64E−07 Molar. The GI50 (HeLa-APL; SRB) was 0.751 µM, the “TGI HELA-APL” value (HeLa-APL; SRB) was 1.61E−06 Molar and the CC50 (HeLa-APL; SRB) was 3.44 µM. The GI50 (PANC-1; SRB) was 2.64 µM, the “TGI PANC-1” value (PANC-1; SRB) was 5.22E−06 Molar and the CC50 (PANC-1; SRB) was 5.22 µM. For the same molecule, the GI50 (DU-145; SRB) was 0.517 µM, the LC50 (concentration causing 50% net cell kill) (DU-145; SRB) was 2.81 µM and the “TGI DU-145” value (DU-145; SRB) was 1.21E−06 Molar.
